According to patent US20010008770A1, “MICRO-ORGANISM WHICH CAN DESULPHURISE BENZOTHIOPHENES” (priority 1996, published 2001):
Entries after “also recorded” stand apart in the source; their conditions may differ.

What was measured:
strain N1-36 = conditions: Wang and Krawiec, 1996a; cited from earlier work
[1] = system: Rhodococcus sp. strain 213F; assay: Growth studies of strain 213F in mineral salts medium with a sole sulphur source (biomass OD600, Gibbs phenol assay, GC-MS of metabolites); conditions: for Biomass at end log phase / Mean Generation time: strain 213F in FruRM; for Biomass at end log phase / Mean Generation time / mean generation time (MGT): sulphur source 200 μM; for mean generation time (MGT): strain 213F, (FruRM)
Experimental: (§1) The final pH was 7.2 without titration. In some experiments another sugar replaced glucose as the carbon-source.
(§2) Growth studies SRM (50 ml in a 100 ml Ehrlenmyer flask) was inoculated with a loopful of cells from a plate and incubated in an orbital shaker (250 rpm, 30° C.). At intervals as appropriate, an 3 ml sample was removed aseptically for measurement of biomass (as optical density at 600 mm, O.D.600) and for phenol production using the Gibbs Assay. The Gibbs Assay was carried out as follows: 1.5 ml of the sample was aliquoted into a Eppendorf tube, centrifuged (12000 rpm, 5 min) to remove the cells and frozen (−20° C.) until the end of the experiment. The samples were then thawed out and 1.0 ml of the supernatant was transferred to a 1 ml disposable spectrophotometer cuvette. 10 μl Gibbs reagent (10 mM in acetone) was then added to each cuvette. A blank solution (SRM +10 μg Gibbs reagent) was also prepared. The set was incubated overnight at 30° C., for full colour development, and the absorbance at 610 nm was measured.
The flasks were incubated in an orbital shaker (120 rpm, 30° C.). At intervals 3 ml was withdrawn from each culture under sterile conditions for measurement of biomass and phenol concentration, as described in methods.

strain ECRD-1 = conditions: Lee, Senius and Grossman, 1996; cited from earlier work
[2] = system: Rhodococcus sp. strain IGTS8; assay: Growth studies of strain IGTS8 in mineral salts medium with a sole sulphur source (biomass OD600, Gibbs phenol assay, GC-MS of metabolites); conditions: for mean generation time (MGT): strain IGTS8, as stated in the text (FruRM)
Experimental: as §1
(§3) For cultures of strain IGTS8, DST (200 μM, added from a stock solution, 40 mM in acetone) was included.
as §2
(§4) Cells were removed by centrifugation at 2800×g (3000 rpm) for 30 mins and the supernatant was titrated to pH 1 with 50% HCl and extracted three times with equal volumes of ethyl acetate. The ethyl acetate extracts ware pooled and dried by stirring for 1 h with anhydrous MgSO4 (100 g/l). The ethyl acetate was removed by rotory evaporation and the solids re-dissolved in 3.0 ml ethyl acetate.
(§5) The GC was fitted with a Hewlett Packard capillary column HP-5MS, of length 30 m. The carrier gas was helium. Run conditions were as follows: Start temperature 40° C. held for 2 min, followed by 10° C./min ramp rate to final temperature 240° C. Total run time, 24 min. The mass scan range was 40 to 550 amu.
(§6) The flasks were incubated in an orbital shaker (120 rpm, 30° C.). At intervals 3 ml was withdrawn from each culture under sterile conditions for measurement of biomass and phenol concentration, as described in methods. The cells were also Gram stained and examined under the microscope.

[3] = system: Rhodococcus sp. strain 213E; assay: Growth studies of strain 213E in mineral salts medium with a sole sulphur source (biomass OD600, Gibbs phenol assay, GC-MS of metabolites); conditions: for Biomass at end log phase / Mean Generation time: strain 213E in FruRM
Experimental: as §1, §3, §2, §4, §5, §6

[4] = system: Rhodococcus sp. strain IGTS8; conditions: background statement; cited from earlier work
[5] = strain IGTS8 in SRM, sulphur source 200 μM

Compound | desulphurisation of compound by strain 213F [1] | Biomass at end log phase [1] | Mean Generation time [1] | mean generation time (MGT) [1] | desulphurisation of compound by strain IGTS8 [2] | desulphurisation of compound by strain 213E [3] | Mean Generation time ([3]; sulphur source 200 μM) | desulphurisation of compound by IGTS8 [4] | mean generation time (MGT) ([2]; sulphur source 200 μM) | Mean Generation time [2, 5] | further results
c1ccc2sccc2c1 [BTH, benzothiophene] | efficiently desulphurise; also recorded: able to desulphurise; also recorded: appears to desulphurise | 6.0 OD600 | 8.0 h | around 8 h | unable to desulphurise; also recorded: does not desulplurise | efficiently desulphurise | 9.0 h | not | – | – | desulphurisation activity of strain N1-36 (strain N1-36): negligible; desulphurisation activity of strain ECRD-1 (strain ECRD-1): negligible; growth with compound as sole sulphur source ([2]; strain IGTS8 in SRM, over a period of 100 h): no significant growth; toxicity to strain 213E (effect on MGT) ([3]; concentration range <200 μM (growth curves 50-200 μM)): not toxic; Biomass at end log phase ([3]; sulphur source 50 μM): 2.3 OD600; Mean Generation time ([3]; sulphur source 50 μM): 8.0 h; Biomass at end log phase ([3]; sulphur source 100 μM): 3.0 OD600; Mean Generation time ([3]; sulphur source 100 μM): 8.6 h; Biomass at end log phase ([3]; sulphur source 200 μM): 4.2 OD600
c1ccc2c(c1)sc1ccccc12 [DBT, dibenzothiophene] | able to desulphurise; also recorded: appears to desulphurise | 5.4 OD600 | 12.4 h | 12 h | desulphurised | unable to desulphurise; also recorded: does not desulphurise | – | desulphurises | around 8 h | 7.0 h | Biomass at end log phase ([2]; strain IGTS8 in SRM, sulphur source 200 μM, 1 cm pathlength): 6.0 OD600; growth with compound as sole sulphur source ([3]; strain 213E, compound substituted for BTH, FruRM, over a period of 100 h): no significant growth
O=S(=O)([O-])[O-].[Na+].[Na+] [sulphate, Sodium sulphate] | – | – | 3.6 h | around 4 h | – | – | 4.4 h | – | around 4 h | 3.2 h | mean generation time (MGT) ([3]; strain 213E, sulphur source 200 μM): around 4 h
c1ccsc1 [thiophene] | – | – | – | – | – | – | – | not | – | – | –
